These results are taken from BindingDB's records for PubMed 9223589 (University of Tours, 1997).

Values joined by “and” are separate entries in the source; they are usually repeats but may differ in a detail not shown here. Equal values may be shown once.

Assay [1] addresses Norepinephrine transporter (Rattus norvegicus, UniProt Q9JIA2).
Assay [2] concerns the target Sodium-dependent dopamine transporter (Rattus norvegicus, UniProt P23977).
Assay [3] addresses Sodium-dependent serotonin transporter (Rattus norvegicus, UniProt P31652).

Chain of Sodium-dependent dopamine transporter (P23977 whole entry): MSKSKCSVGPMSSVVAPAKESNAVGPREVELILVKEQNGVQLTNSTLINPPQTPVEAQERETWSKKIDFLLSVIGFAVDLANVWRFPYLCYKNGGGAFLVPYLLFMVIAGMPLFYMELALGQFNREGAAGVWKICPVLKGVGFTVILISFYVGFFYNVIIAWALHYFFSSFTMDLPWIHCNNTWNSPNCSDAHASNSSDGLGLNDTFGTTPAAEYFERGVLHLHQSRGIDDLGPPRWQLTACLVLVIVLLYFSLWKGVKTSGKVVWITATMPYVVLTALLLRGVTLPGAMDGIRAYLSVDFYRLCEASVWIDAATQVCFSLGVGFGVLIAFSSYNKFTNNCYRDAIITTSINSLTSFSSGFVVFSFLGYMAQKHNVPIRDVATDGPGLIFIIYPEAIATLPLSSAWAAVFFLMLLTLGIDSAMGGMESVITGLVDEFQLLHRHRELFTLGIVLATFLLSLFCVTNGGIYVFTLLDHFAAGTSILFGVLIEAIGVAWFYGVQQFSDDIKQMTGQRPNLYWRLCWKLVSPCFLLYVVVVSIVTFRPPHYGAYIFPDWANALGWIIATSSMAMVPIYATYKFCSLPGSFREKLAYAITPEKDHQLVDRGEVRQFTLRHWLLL
Chain of Sodium-dependent serotonin transporter (P31652 whole entry): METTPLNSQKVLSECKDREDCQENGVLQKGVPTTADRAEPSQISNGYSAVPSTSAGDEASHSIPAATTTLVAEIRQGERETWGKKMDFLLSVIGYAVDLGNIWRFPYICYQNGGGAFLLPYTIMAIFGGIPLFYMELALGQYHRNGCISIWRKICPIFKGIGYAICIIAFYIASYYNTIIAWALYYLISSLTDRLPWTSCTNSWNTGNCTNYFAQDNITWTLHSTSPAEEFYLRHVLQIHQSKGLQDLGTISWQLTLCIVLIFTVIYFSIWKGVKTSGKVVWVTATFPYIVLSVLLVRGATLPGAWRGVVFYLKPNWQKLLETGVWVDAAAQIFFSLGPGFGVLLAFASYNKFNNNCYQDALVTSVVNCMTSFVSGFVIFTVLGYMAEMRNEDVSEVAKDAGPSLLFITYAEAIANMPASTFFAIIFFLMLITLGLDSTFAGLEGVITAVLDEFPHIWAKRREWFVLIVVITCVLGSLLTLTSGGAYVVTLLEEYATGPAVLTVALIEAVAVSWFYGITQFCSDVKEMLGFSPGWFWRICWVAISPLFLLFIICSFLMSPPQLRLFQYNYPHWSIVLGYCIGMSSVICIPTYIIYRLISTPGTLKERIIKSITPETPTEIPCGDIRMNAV

The molecule `COC(=O)[C@H]1C(c2ccc(Cl)c(Cl)c2)CC2CCC1N2C/C=C/I` (stereo partly drawn) [(2S,8R)-3-(3,4-Dichloro-phenyl)-8-((E)-3-iodo-allyl)-8-aza-bicyclo[3.2.1]octane-2-carboxylic acid methyl ester] came in with an inhibition constant (Ki) in assay [1] of 500 nM. This counts as sub-micromolar. `O[C@]1(c2ccc(Cl)cc2)c2ccccc2C2=NCCN21` [Mazanor]: the Ki in assay [2] is 50 nM and 12 nM. Regarding `COC(=O)[C@H]1[C@@H](c2ccc(I)cc2)C[C@@H]2CC[C@H]1N2C` [RTI 55, (exo,exo)-isomer, Iodine (125) labeled], the Ki in assay [1] was 80 nM; in assay [2], 27.5 nM; in assay [3] it was 3.1 nM.

As a reminder, the Ki is the equilibrium dissociation constant of an inhibitor or competing ligand from its target. Read a high Ki as a looser hold on the target.
